Where “and” joins values, the source holds several entries; their conditions need not be identical. Equal entries are not always repeated.
System: 616215-338-R-J1-PDC tumor spheroids, viability
Assay: Anticancer human tumor 616215-338-R-J1-PDC patient-derived colon adenocarcinoma cell line growth inhibition [GQUAD]
Conditions: spheroids with HUVEC and MSC; for viability, T/C: stronger effect = lower value
From the text: DNA G-quadruplex Stabilizer Agents in Combinations in Complex Spheroids
A high-throughput screen of multi-cell type tumor spheroids was designed to identify active combinations of DNA G-quadruplex stabilizer agents and targeted small molecules. Complex spheroids include a stromal component modeled by human endothelial cells (HUVEC) and fibroblasts modeled by human mesenchymal stem cells (MSCs). The concentration ranges selected for each drug and investigational agent were based upon clinically achievable concentrations if the clinical Cmax of the agent was known.
Compounds. The drugs and investigational agents: pidnarulex (CX-5461; NSC782164), APTO-253 (NSC789042), BRACO-19 (NSC847499), peposertib (NSC802822), ceralasertib (NSC780249), elimusertib (NSC800525), camonsertib (NSC841442), AZD-1390 (NSC803789), olaparib (NSC753686), talazoparib (NSC767125), ART-558 (NSC835418), sotorasib (NSC818433), MRTX-1133 (NSC836407), SN-38 (NSC673596), topotecan (NSC609699), etoposide (NSC141540), doxorubicin (NSC123127), gemcitabine (NSC613327), 5-fluorouracil (NSC19893), paclitaxel (NSC125973), vemurafenib (NSC761431), panobinostat (NSC761190), R-306465 (JNJ-16241199; NSC773264), adavosertib (NSC754352), TP-3654 (NSC805149), carboplatin (NSC241240), KSQ-4279 (NSC840948), and staurosporine (NSC755774) were obtained from the National Cancer Institute (NCI) Developmental Therapeutics Program Chemical Repository (34). The FDA-approved anticancer drug set is available from the NCI Developmental Therapeutics Program. […] The stock solutions were prepared in dimethyl sulfoxide (DMSO, Sigma-Aldrich, St. Louis, MO, cat. D2650) at 800-fold the tested concentration and stored at -70 degrees C prior to their use. All drugs and investigational agents were tested over a range starting from a high concentration at or near the clinical Cmax and decreasing in half-log increments. If the clinical Cmax for an agent had not been determined, the highest concentration tested was 10 microM.
2.3 Cell Culture. All cells were maintained in an incubator at 37 degrees C and 5% CO2 with 95% humidity. The PDC lines were cultured according to standard operating procedures established by the NCI PDMR. All PDCs were thawed and cultured in Matrigel-coated flasks prepared with a working solution of 1X Ham's F-12 nutrient mix, without supplementation (Invitrogen, cat. 11765054), 100 U/mL penicillin-streptomycin (Invitrogen, cat. 15140122), and 2.5% Matrigel (Corning Inc., cat. 354248) for the first three passages. The 857933-349-R-J2-PDC line was cultured in 6C/Colon 1B media, which includes advanced DMEM/F-12 (Thermo Fisher Scientific, cat. 12634028), 10 mM HEPES (Thermo Fisher Scientific, cat. 15630080), 1X GlutaMAX supplement (Thermo Fisher Scientific, cat. 35050061), 0.1 mg/mL primocin (InvivoGen, cat. ant-pm-2), 10% defined fetal bovine serum, heat inactivated (HyClone Laboratories Inc., cat. SH30070.03HI), 50% L-WRN conditioned media (ATCC, cat. CRL-3276), 1.25 mM N-Acetyl-L-cysteine (Sigma-Aldrich, cat. A9165), 10 mM nicotinamide (Sigma-Aldrich, cat. N0636), 1X B-27 supplement (Thermo Fisher Scientific, cat. 17504044), 1X N-2 supplement (Thermo Fisher Scientific, cat. 17502048), 10 microM Y-27632 dihydrochloride (Tocris Bioscience, cat. 1254), and 50 ng/mL human EGF recombinant protein (Thermo Fisher Scientific, cat. PHG0311). The 485176-168-R4-J1-PDC line was cultured in Panc media, which includes all 6C/Colon 1B media components plus 100 ng/mL human FGF-10 (Thermo Fisher Scientific, cat. 100-26), 500 nM SB-431542 (Selleckchem, cat. S1067), and gastrin (Tocris, cat. 3006).
[…]

[1] = curve of first compound, second compound 0.0316 µM
[2] = curve of first compound, second compound 0.1 µM
[3] = curve of first compound, second compound 0.316 µM
[4] = curve of first compound, second compound 1 µM
[5] = curve of first compound, second compound 3.16 µM
[6] = curve of first compound, second compound 10 µM
[7] = second compound 0.0316 µM, first compound 0.0316 µM
[8] = second compound 0.0316 µM, first compound 0.1 µM
[9] = second compound 0.0316 µM, first compound 0.316 µM
[10] = second compound 0.0316 µM, first compound 1 µM
[11] = second compound 0.0316 µM, first compound 3.16 µM
[12] = second compound 0.0316 µM, first compound 10 µM
[13] = second compound 0.1 µM, first compound 0.0316 µM
[14] = second compound 0.1 µM, first compound 0.1 µM
[15] = second compound 0.1 µM, first compound 0.316 µM
[16] = second compound 0.1 µM, first compound 1 µM
[17] = second compound 0.1 µM, first compound 3.16 µM
[18] = second compound 0.1 µM, first compound 10 µM
[19] = second compound 0.316 µM, first compound 0.0316 µM
[20] = second compound 0.316 µM, first compound 0.1 µM
[21] = second compound 0.316 µM, first compound 0.316 µM
[22] = second compound 0.316 µM, first compound 1 µM
[23] = second compound 0.316 µM, first compound 3.16 µM
[24] = second compound 0.316 µM, first compound 10 µM
[25] = second compound 1 µM, first compound 0.0316 µM
[26] = second compound 1 µM, first compound 0.1 µM
[27] = second compound 1 µM, first compound 0.316 µM
[28] = second compound 1 µM, first compound 1 µM
[29] = second compound 1 µM, first compound 3.16 µM
[30] = second compound 1 µM, first compound 10 µM
[31] = second compound 3.16 µM, first compound 0.0316 µM
[32] = second compound 3.16 µM, first compound 0.1 µM
[33] = second compound 3.16 µM, first compound 0.316 µM
[34] = second compound 3.16 µM, first compound 1 µM
[35] = second compound 3.16 µM, first compound 3.16 µM
[36] = second compound 3.16 µM, first compound 10 µM
[37] = second compound 10 µM, first compound 0.0316 µM
[38] = second compound 10 µM, first compound 0.1 µM
[39] = second compound 10 µM, first compound 0.316 µM
[40] = second compound 10 µM, first compound 1 µM
[41] = second compound 10 µM, first compound 3.16 µM
[42] = second compound 10 µM, first compound 10 µM
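Further: spheroids exposed to agents for 7 days before readout.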
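Wherever viability, T/C is given: percent viability relative to DMSO vehicle control wells taken as 100%.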

SMILES: O=C(c1cc(Cc2n[nH]c(=O)c3ccccc23)ccc1F)N1CCN(C(=O)C2CC2)CC1
- viability, T/C (compound 0.0316 µM): 96.6% and 106% and 92.3%
- viability, T/C (compound 0.1 µM): 105% and 99.2% and 101%
- viability, T/C (compound 0.316 µM): 98.7% and 104% and 96.1%
- viability, T/C (compound 1 µM): 96.9% and 105% and 96.2%
- viability, T/C (compound 3.16 µM): 102% and 105% and 98.3%
- viability, T/C (compound 10 µM): 67.2% and 66.3% and 73.1%
- IC50 (curve of compound): > 10 µM

SMILES: CC(C)n1c(=O)n(C)c2cnc3cc(F)c(-c4ccc(OCCCN5CCCCC5)nc4)cc3c21 + Cc1cnc(CNC(=O)c2c(=O)c3ccc(N4CCCN(C)CC4)nc3n3c2sc2ccccc23)cn1
- IC50 [1]: 5.42 µM
- IC50 [2]: 0.0316 µM
- IC50 [3]: < 0.0316 µM
- IC50 [4]: < 0.0316 µM
- IC50 [5]: < 0.0316 µM
- IC50 [6]: < 0.0316 µM
- viability, T/C [7]: 82%
- viability, T/C [8]: 62%
- viability, T/C [9]: 47.6%
- viability, T/C [10]: 69.5%
- viability, T/C [11]: 64%
- viability, T/C [12]: 33.9%
- viability, T/C [13]: 48.3%
- viability, T/C [14]: 48.5%
- viability, T/C [15]: 52.2%
- viability, T/C [16]: 34%
- viability, T/C [17]: 36.9%
- viability, T/C [18]: 28.8%
- viability, T/C [19]: 40.6%
- viability, T/C [20]: 43.3%
- viability, T/C [21]: 53.8%
- viability, T/C [22]: 38.5%
- viability, T/C [23]: 46.8%
- viability, T/C [24]: 13.4%
- viability, T/C [25]: 28.3%
- viability, T/C [26]: 36.1%
- viability, T/C [27]: 29.9%
- viability, T/C [28]: 28.2%
- viability, T/C [29]: 34.3%
- viability, T/C [30]: 30.5%
- viability, T/C [31]: 22.5%
- viability, T/C [32]: 25.6%
- viability, T/C [33]: 32.1%
- viability, T/C [34]: 23.2%
- viability, T/C [35]: 26.9%
- viability, T/C [36]: 8.45%
- viability, T/C [37]: 31.1%
- viability, T/C [38]: 41.4%
- viability, T/C [39]: 19.9%
- viability, T/C [40]: 31.9%
- viability, T/C [41]: 24.1%
- viability, T/C [42]: 19.2%

SMILES: Cc1cccc(N(C)C(=O)C2C(O)CCN2c2nc(C)cc(C(F)(F)F)c2C#N)c1 (configuration not stated)
- viability, T/C (compound 0.0316 µM): 91.4% and 99.2% and 101%
- viability, T/C (compound 0.1 µM): 106% and 94.5% and 102%
- viability, T/C (compound 0.316 µM): 94.1% and 103% and 102%
- viability, T/C (compound 1 µM): 94% and 96.9% and 105%
- viability, T/C (compound 3.16 µM): 102% and 98.7% and 113%
- viability, T/C (compound 10 µM): 102% and 92.6% and 103%
- IC50 (curve of compound): > 10 µM

SMILES: Cc1cnc(CNC(=O)c2c(=O)c3ccc(N4CCCN(C)CC4)nc3n3c2sc2ccccc23)cn1
- viability, T/C (compound 0.0316 µM): 104% [middle of 12 runs]
- viability, T/C (compound 3.16 µM): 31.6% [middle of 12 runs]
- viability, T/C (compound 10 µM): 25.1% [middle of 12 runs]

SMILES: O=c1[nH]cc(F)c(=O)[nH]1 + CN(C)c1ccc(Nc2c3ccc(NC(=O)CCN4CCCC4)cc3nc3cc(NC(=O)CCN4CCCC4)ccc23)cc1
- IC50 [1]: 0.663 µM
- IC50 [2]: 0.505 µM
- IC50 [3]: 0.455 µM
- IC50 [4]: 0.562 µM
- IC50 [5]: 0.383 µM
- IC50 [6]: 0.373 µM
- viability, T/C [7]: 98.4%
- viability, T/C [8]: 89.3%
- viability, T/C [9]: 66.6%
- viability, T/C [10]: 39.8%
- viability, T/C [11]: 36.4%
- viability, T/C [12]: 32.8%
- viability, T/C [13]: 95.3%
- viability, T/C [14]: 94.3%
- viability, T/C [15]: 58.8%
- viability, T/C [16]: 38%
- viability, T/C [17]: 38.1%
- viability, T/C [18]: 33.9%
- viability, T/C [19]: 93.9%
- viability, T/C [20]: 81.2%
- viability, T/C [21]: 54.5%
- viability, T/C [22]: 39.6%
- viability, T/C [23]: 36.7%
- viability, T/C [24]: 32.8%
- viability, T/C [25]: 101%
- viability, T/C [26]: 86.4%
- viability, T/C [27]: 59.2%
- viability, T/C [28]: 41.6%
- viability, T/C [29]: 31.2%
- viability, T/C [30]: 33.6%
- viability, T/C [31]: 84.5%
- viability, T/C [32]: 83.8%
- viability, T/C [33]: 52.5%
- viability, T/C [34]: 38%
- viability, T/C [35]: 32%
- viability, T/C [36]: 34%
- viability, T/C [37]: 87.6%
- viability, T/C [38]: 71.3%
- viability, T/C [39]: 52.4%
- viability, T/C [40]: 38.9%
- viability, T/C [41]: 38.3%
- viability, T/C [42]: 35.5%

SMILES: CC1COCCN1c1cc(C2(O)CC3CCC(C2)O3)c2cnn(-c3ccn[nH]3)c2n1 (configuration not stated)
- viability, T/C (compound 0.0316 µM): 95.2% and 102% and 99.8%
- viability, T/C (compound 0.1 µM): 60.7% and 60.2% and 55.6%
- viability, T/C (compound 0.316 µM): 45.5% and 31.8% and 40.3%
- viability, T/C (compound 1 µM): 34.9% and 39.4% and 31.6%
- viability, T/C (compound 3.16 µM): 21.1% and 23.5% and 21.3%
- viability, T/C (compound 10 µM): 23.2% and 16.9% and 12.9%
- IC50 (curve of compound): 0.217 µM and 0.171 µM and 0.175 µM

SMILES: COc1cccc2c1C(=O)c1c(O)c3c(c(O)c1C2=O)CC(O)(C(=O)CO)CC3OC1CC(N)C(O)C(C)O1 (configuration not stated)
- viability, T/C (compound 0.0316 µM): 99.9% and 99.3% and 97.8%
- viability, T/C (compound 0.1 µM): 86.1% and 94.3% and 81%
- viability, T/C (compound 0.316 µM): 45.8% and 52.1% and 60.8%
- viability, T/C (compound 1 µM): 33.6% and 31% and 57.7%
- viability, T/C (compound 3.16 µM): 24.8% and 24.6% and 27.7%
- viability, T/C (compound 10 µM): 1.26% and 0.35% and 6.04%
- IC50 (curve of compound): 0.411 µM and 0.47 µM and 0.878 µM

SMILES: CC(C)n1c(=O)n(C)c2cnc3cc(F)c(-c4ccc(OCCCN5CCCCC5)nc4)cc3c21
- viability, T/C (compound 0.0316 µM): 107% and 104% and 97.4%
- viability, T/C (compound 0.1 µM): 99% and 102% and 91.9%
- viability, T/C (compound 0.316 µM): 106% and 98.5% and 96.9%
- viability, T/C (compound 1 µM): 110% and 101% and 92.8%
- viability, T/C (compound 3.16 µM): 106% and 110% and 105%
- viability, T/C (compound 10 µM): 53% and 94.7% and 96.5%
- IC50 (curve of compound): > 10 µM
